Entries after “also recorded” stand apart in the source; their conditions may differ.
Tests used:
GPIIb/IIIa = target: T1, GPIIb/IIIa (Homo sapiens, UniProt P05106+P08514); test: In vitro solid phase purified glycoprotein IIb/IIIa binding assay (biotinylated fibrinogen); settings: Table I
T1 sequence (P08514 32-887 limits assumed): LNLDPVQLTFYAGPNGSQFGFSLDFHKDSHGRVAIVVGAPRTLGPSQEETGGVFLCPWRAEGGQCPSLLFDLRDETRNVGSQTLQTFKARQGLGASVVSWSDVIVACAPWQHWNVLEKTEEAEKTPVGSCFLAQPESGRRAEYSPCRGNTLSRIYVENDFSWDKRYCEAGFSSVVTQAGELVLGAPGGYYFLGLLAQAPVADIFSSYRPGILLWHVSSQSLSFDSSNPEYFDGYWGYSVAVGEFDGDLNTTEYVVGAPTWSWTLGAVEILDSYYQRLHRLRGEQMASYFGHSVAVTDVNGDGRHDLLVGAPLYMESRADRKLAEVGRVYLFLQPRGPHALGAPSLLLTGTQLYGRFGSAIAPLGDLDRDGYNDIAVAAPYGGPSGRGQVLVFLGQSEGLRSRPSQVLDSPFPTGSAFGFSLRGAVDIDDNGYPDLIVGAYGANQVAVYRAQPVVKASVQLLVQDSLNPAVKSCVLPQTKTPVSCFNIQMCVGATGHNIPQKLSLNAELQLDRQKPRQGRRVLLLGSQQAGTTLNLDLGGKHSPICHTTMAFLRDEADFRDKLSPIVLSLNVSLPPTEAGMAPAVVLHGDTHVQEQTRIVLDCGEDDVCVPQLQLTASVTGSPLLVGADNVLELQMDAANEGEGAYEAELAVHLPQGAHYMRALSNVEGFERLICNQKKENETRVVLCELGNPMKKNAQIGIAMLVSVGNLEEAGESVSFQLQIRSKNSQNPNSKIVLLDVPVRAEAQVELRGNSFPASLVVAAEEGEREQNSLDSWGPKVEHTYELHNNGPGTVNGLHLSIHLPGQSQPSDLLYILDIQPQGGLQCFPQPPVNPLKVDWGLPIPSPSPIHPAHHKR
T1 sequence (P05106 27-788): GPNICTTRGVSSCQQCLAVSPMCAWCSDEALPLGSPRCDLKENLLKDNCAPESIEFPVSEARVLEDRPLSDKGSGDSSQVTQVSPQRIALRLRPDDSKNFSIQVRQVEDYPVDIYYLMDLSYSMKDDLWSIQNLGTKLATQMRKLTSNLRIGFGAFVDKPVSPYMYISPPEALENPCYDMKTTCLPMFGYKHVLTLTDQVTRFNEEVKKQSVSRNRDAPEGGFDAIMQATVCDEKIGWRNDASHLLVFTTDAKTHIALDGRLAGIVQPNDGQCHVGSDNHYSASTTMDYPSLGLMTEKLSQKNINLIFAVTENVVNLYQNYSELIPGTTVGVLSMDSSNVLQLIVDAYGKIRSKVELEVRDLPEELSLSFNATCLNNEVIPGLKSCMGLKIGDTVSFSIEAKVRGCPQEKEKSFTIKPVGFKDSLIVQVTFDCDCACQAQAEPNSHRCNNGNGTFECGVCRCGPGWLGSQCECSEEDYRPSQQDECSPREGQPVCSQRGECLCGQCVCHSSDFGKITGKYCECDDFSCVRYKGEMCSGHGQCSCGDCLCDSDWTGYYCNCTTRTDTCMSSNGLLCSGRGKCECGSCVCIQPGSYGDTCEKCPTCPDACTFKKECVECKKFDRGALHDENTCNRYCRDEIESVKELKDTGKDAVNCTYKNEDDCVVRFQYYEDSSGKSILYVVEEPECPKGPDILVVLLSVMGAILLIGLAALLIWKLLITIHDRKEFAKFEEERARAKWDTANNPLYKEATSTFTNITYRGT
From the text: The compounds of the present invention interrupt binding of fibrinogen to platelet glycoprotein IIb/IIIa (GPIIb/IIIa) and thereby inhibit platelet aggregation. […] Because the final, common pathway in normal platelet aggregation is the binding of fibrinogen to activated, exposed GPIIb/IIIa, inhibition of this binding represents a plausible antithrombotic approach. The receptor is activated by stimuli such as ADP, collagen, and thrombin, exposing binding domains to two different peptide regions of fibrinogen: α-chain Arg-Gly-Asp (RGD) and γ-chain 400-411.
IN VITRO SOLID PHASE PURIFIED GLYCOPROTEIN IIB/IIIA BINDING ASSAY.
The plate is covered and incubated overnight at 4° C. The GPIIb/IIa solution is discarded and 150 μl of 5% BSA is added and incubated at RT for 1-3 h. The plate is washed extensively with modified Tyrodes buffer. Biotinylated fibrinogen (25 μl/well) at 2× final concentration is added to the wells that contain the test compounds (25 μl/well) at 2× final concentration. The plate is covered and incubated at RT for 2-4 h. Twenty minutes prior to incubation completion, one drop of Reagent A (Vecta Stain ABC Horse Radish Peroxidase kit, Vector Laboratories, Inc.) and one drop Reagent B are added with mixing to 5 mL modified Tyrodes buffer mix and let stand. The ligand solution is discarded and the plate washed (5×200 μl/well) with modified Tyrodes buffer. Vecta Stain HRP-Biotin-Avidin reagent (50 μl/well, as prepared above) is added and incubated at RT for 15 min. The Vecta Stain solution is discarded and the wells washed (5×200 μl/well) with modified Tyrodes buffer. […] The absorbance is read at 490 nm.

gel-filtered platelets = test: In vitro inhibition of thrombin-induced gel-filtered platelet aggregation assay; type: cell-based; settings: *Indicates IC50, read-out: Pl. Aggr. IC50
Method: IN VITRO INHIBITION OF THROMBIN-INDUCED GEL-FILTERED PLATELET AGGREGATION ASSAY.
The percentage of platelet aggregation is calculated as an increase in light transmission of compound treated platelet concentrate vs. control treated platelet concentrate. Blood is obtained from drug free, normal donors into tubes containing 0.13M sodium citrate. Platelet rich plasma (PRP) is collected by centrifugation of whole blood at 200×g for 10 min at 25° C. The PRP (5 mL) is gel filtered through Sepharose 2B (bed volume 50 mL), and the platelet count is adjusted to 2×10^7platelets per sample. The following constituents are added to a siliconized cuvette: concentrated platelet filtrate and Tyrode's buffer (0.1 4M NaCl, 0.0027M KCl, 0.01 2M NaHCO3, 0.76 mM Na2 HPO4, 0.0055M glucose, 2 mg/mL BSA and 5.0 mM HEPES @ pH 7.4) in an amount equal to 350 μl, 50 μl of 20 mM calcium and 50 μl of the test compound. Aggregation is monitored in a BIODATA aggregometerforthe 3 min following the addition of agonist (thrombin 50 μl of 1 unit/mL).

platelet aggregation = test: Ex vivo dog study: platelet aggregation and ATP release in whole blood and PRP; design: species or system mongrel dogs
Method: Adult mongrel dogs (8-13 kg) were anesthetized with sodium pentobarbital (35 mg/kg, i.v.) and artificially respired. Arterial blood pressure and heart rate were measured using a Millar catheter-tip pressure transducer inserted in a femoral artery. Another Millar transducer was placed in the left ventricle (LV) via a carotid artery to measure LV end diastolic pressure and indices of myocardial contractility. A lead II electrocardiogram was recorded from limb electrodes. Catheters were placed in a femoral artery and vein to sample blood and infuse drugs, respectively. Responses were continuously monitored using a Modular Instruments data aquisition system.
(§1) Arterial blood samples (5-9 ml) were withdrawn into tubes containing 3.8% sodium citrate to prepare platelet rich plasma (PRP) and to determine effects on coagulation parameters: prothrombin time (PT) and activated partial thromboplastin time (APTT). Separate blood samples (1.5 ml) were withdrawn in EDTA to determine hematocrit and cell counts (platelets, RBC's and white cells). Template bleeding times were obtained from the buccal surface using a symplate incision devise and Whatman filter paper.
(§2) Aggregation of PRP was performed using a BioData aggregometer. Aggregation of whole blood used a Chronolog impedance aggregometer. PT and APTT were determined on either a BioData or ACL 3000+ coagulation analyser. Cells were counted with a Sysmex K-1000.
(§3) Compound 17 was solubilized in a small volume of dimethylformamide (DMF) and diluted with saline to a final concentration of 10% DMF. Compound 17 was administered by the intravenous route with a Harvard infusion pump. Doses of 0.3, 1, 3, and 10 mg/kg were given in a cumulative fashion to each animal. Each dose was administered over a 15 min interval at a constant rate of 0.33 ml/min. Data were obtained after each dose and 30 and 60 min following the end of drug administration.

[1] = design: species or system mongrel dogs; settings: dog, in vivo, iv
Method: as §1, §2, §3

O=C(O)CCNC(=O)C1CCCN(C(=O)CCC2CCNCC2)C1 (stereo not drawn) [Compound 17, N-[3-(4-Piperidinepropionyl)]-Nip-β-Ala-OH]
IC50 (GPIIb/IIIa): 3 nM
IC50 (gel-filtered platelets): 130 nM
platelet function began to recover (platelet aggregation; PRP and whole blood, post treatment): 30 to 60 min
Gamma thrombin induced aggregation of PRP (platelet aggregation; PRP, doses of 3.0 mg/kg and above, iv): inhibited at doses of 3.0 mg/kg and above
collagen stimulated platelet aggregation, PRP (platelet aggregation; PRP, marked activity at 0.3 mg/kg iv): marked activity at 0.3 mg/kg
duration of drug action / antiaggregatory effect (platelet aggregation; iv): relatively short duration of drug action
ex vivo platelet aggregation responses (platelet aggregation; iv, 0.3-10 mg/kg cumulative): marked inhibition of ex vivo platelet aggregation responses; also recorded: broadly effective inhibitor of platelet aggregation ex vivo
collagen stimulated platelet ATP release (platelet aggregation; whole blood, 10 mg/kg iv): marked inhibition
collagen-stimulated aggregation, whole blood (platelet aggregation; whole blood, doses of 0.3-10 mg/kg iv): inhibited
bleeding time at the higher doses [1]: increases in bleeding time at the higher doses
coagulation (PT or APTT) [1]: No effects on coagulation
platelet, white and RBC counts [1]: unchanged at any dose

Source: patent US5770575A, “Nipecotic acid derivatives as antithrombotic compounds” (Ortho Pharmaceutical Corporation, priority 1995, dated 1998)
